One test has as its target T1, HDAC8 (Homo sapiens, UniProt Q9BY41).
T1 construct: purchased BPS Bioscience 50008
T1 sequence (Q9BY41 1-377): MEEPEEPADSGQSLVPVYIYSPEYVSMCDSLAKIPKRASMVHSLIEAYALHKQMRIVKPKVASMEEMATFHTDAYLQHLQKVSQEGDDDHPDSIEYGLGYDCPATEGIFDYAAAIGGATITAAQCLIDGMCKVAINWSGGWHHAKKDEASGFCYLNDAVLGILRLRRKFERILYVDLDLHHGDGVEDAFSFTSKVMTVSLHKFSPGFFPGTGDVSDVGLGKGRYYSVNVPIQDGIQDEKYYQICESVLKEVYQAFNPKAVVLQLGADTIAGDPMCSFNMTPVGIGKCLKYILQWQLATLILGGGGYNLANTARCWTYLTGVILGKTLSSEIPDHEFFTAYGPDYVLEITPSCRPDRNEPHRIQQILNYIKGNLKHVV
Kind of test: HDAC-Glo I/II enzymatic assay, HDAC8. The format is biochemical. The conditions noted are these: read-out: HDAC8 pIC50 (converted). As for the experimental part: (§1) Inhibitors were tested at eight serial dilutions in triplicate ranging from 50 μM–86,7 pM (HDAC6) or 100 μM–8,67 nM (HDAC1,2,3,8). Drug dosing was performed from 10 mM and 0.1 mM DMSO stock solutions with a D300e Digital Dispenser (Tecan). HDACs (7 ng/mL for HDAC1, 10 ng/mL for HDAC2, 200 ng/mL for HDAC3/Ncor2 complex, 100 ng/mL for HDAC6, 200 ng/mL for HDAC8) and inhibitors were incubated together for 30 min at room temperature. After addition of the HDAC‐Glo™ I/II reagent, plates were shaken (800 rpm orbital shaker, 30 s), centrifuged (300 g, 1 min) and incubated at room temperature for 30 min. Luminescence was detected with a CLARIOstar (BMG Labtech) plate reader.
T2 sequence (Q13547 whole entry): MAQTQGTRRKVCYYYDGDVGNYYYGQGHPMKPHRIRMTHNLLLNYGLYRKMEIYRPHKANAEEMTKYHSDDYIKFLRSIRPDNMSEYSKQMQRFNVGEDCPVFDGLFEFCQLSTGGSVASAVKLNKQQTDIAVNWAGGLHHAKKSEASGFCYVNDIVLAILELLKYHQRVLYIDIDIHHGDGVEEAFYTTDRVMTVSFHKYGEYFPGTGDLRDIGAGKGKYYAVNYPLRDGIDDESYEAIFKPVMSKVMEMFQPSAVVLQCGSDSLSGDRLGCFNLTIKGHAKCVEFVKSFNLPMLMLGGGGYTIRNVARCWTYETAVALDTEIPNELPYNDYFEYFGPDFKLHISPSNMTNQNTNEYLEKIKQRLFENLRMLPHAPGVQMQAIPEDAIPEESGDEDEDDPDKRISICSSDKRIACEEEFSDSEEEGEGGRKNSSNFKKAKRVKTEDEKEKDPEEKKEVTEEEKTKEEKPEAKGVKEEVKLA
Regarding `CN(C)Cc1nn(Cc2ccc(C(=O)NO)cc2)c2ccccc12` [Compound 1g], the IC50 was 0.851 µM.
`O=C(NO)c1ccc(Cc2c[nH]c3ccc(C(=O)NO)cc23)cc1` [Compound 3d]: the IC50 is 0.0977 µM.
As to `CN(C)CCn1cc(Cc2ccc(C(=O)NO)cc2)c2cc(C(=O)NO)ccc21` [Compound 3e], the IC50 is 0.0661 µM.
Consider `O=C(NO)c1ccc(Cn2ncc3ccc(C(=O)NO)cc32)cc1` [Compound 3f], for which the IC50 is 0.0427 µM.
As for `CN(C)Cc1nn(Cc2ccc(C(=O)NO)cc2)c2cc(C(=O)NO)ccc12` [Compound 3g], the IC50 is 0.0891 µM.
As to `CN(C)Cc1cn(Cc2ccc(C(=O)NO)cc2)c2cc(C(=O)NO)ccc12` [Compound 3b], the IC50 was 0.166 µM.
Take `O=C(NO)c1ccc(Cn2ccc3ccc(C(=O)NO)cc32)cc1` [Compound 3a]: the IC50 was 0.0676 µM.
`CN1CCc2c(c3ccc(C(=O)NO)cc3n2Cc2ccc(C(=O)NO)cc2)C1` [Compound 3c]: the IC50 was 0.513 µM.

Another test has as its target T2, HDAC1 (Homo sapiens, UniProt Q13547).
T2 construct: purchased BPS Bioscience 50051
The test is described as follows: HDAC-Glo I/II enzymatic assay, HDAC1. Format: biochemical. Particulars: read-out: HDAC1 pIC50 (converted). On the procedure: as §1
With `O=C(NO)c1ccc(Cc2c[nH]c3ccc(C(=O)NO)cc23)cc1` [Compound 3d], the IC50 is 0.525 µM.
Take `CN(C)CCn1cc(Cc2ccc(C(=O)NO)cc2)c2cc(C(=O)NO)ccc21` [Compound 3e]: the IC50 is 0.813 µM.
Regarding `O=C(NO)c1ccc(Cn2ncc3ccc(C(=O)NO)cc32)cc1` [Compound 3f], the IC50 is 0.0871 µM.
Turning to `CN(C)Cc1nn(Cc2ccc(C(=O)NO)cc2)c2cc(C(=O)NO)ccc12` [Compound 3g], the IC50 was 0.661 µM.
In the case of `CN(C)Cc1cn(Cc2ccc(C(=O)NO)cc2)c2cc(C(=O)NO)ccc12` [Compound 3b], the IC50 was 0.617 µM.
As to `O=C(NO)c1ccc(Cn2ccc3ccc(C(=O)NO)cc32)cc1` [Compound 3a], the IC50 is 0.263 µM.
Take `CN1CCc2c(c3ccc(C(=O)NO)cc3n2Cc2ccc(C(=O)NO)cc2)C1` [Compound 3c]: the IC50 was 0.501 µM.

The target of a further test is T3, HDAC2 (Homo sapiens, UniProt Q92769).
T3 construct: purchased BPS Bioscience 50002
T3 sequence (Q92769 whole entry): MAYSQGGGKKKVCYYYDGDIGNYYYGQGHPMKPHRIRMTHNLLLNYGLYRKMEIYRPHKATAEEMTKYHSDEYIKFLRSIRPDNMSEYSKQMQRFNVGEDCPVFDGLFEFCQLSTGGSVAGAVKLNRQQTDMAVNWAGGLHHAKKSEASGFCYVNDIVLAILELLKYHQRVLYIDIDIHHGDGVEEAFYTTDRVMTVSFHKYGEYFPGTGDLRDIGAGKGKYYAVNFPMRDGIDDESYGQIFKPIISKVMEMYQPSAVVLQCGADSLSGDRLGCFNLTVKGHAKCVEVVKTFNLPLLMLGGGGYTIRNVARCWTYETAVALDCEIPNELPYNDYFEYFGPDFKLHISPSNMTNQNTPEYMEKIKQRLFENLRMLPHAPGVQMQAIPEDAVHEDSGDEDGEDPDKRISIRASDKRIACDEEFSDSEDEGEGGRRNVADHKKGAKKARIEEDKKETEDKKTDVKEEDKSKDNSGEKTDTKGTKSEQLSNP
The test is described as follows: HDAC-Glo I/II enzymatic assay, HDAC2. Format: biochemical. Particulars: read-out: HDAC2 pIC50 (converted). On the procedure:
as §1
Take `O=C(NO)c1ccc(Cc2c[nH]c3ccc(C(=O)NO)cc23)cc1` [Compound 3d]: the IC50 was 4.68 µM.
As for `CN(C)CCn1cc(Cc2ccc(C(=O)NO)cc2)c2cc(C(=O)NO)ccc21` [Compound 3e], the IC50 was 7.08 µM.
Same read-out and setting: the value for `O=C(NO)c1ccc(Cn2ncc3ccc(C(=O)NO)cc32)cc1` [Compound 3f] was 0.724 µM.
On to `CN(C)Cc1nn(Cc2ccc(C(=O)NO)cc2)c2cc(C(=O)NO)ccc12` [Compound 3g], for which the IC50 was 9.55 µM.
Turning to `CN(C)Cc1cn(Cc2ccc(C(=O)NO)cc2)c2cc(C(=O)NO)ccc12` [Compound 3b], the IC50 was 5.37 µM.
With `O=C(NO)c1ccc(Cn2ccc3ccc(C(=O)NO)cc32)cc1` [Compound 3a], the IC50 was 2.24 µM.
In the case of `CN1CCc2c(c3ccc(C(=O)NO)cc3n2Cc2ccc(C(=O)NO)cc2)C1` [Compound 3c], the IC50 is 4.17 µM.

For a further test, the target named is T4, HDAC3/NcoR2 complex (Homo sapiens, UniProt O15379).
T4 construct: purchased BPS Bioscience 50003
T4 sequence (O15379 whole entry): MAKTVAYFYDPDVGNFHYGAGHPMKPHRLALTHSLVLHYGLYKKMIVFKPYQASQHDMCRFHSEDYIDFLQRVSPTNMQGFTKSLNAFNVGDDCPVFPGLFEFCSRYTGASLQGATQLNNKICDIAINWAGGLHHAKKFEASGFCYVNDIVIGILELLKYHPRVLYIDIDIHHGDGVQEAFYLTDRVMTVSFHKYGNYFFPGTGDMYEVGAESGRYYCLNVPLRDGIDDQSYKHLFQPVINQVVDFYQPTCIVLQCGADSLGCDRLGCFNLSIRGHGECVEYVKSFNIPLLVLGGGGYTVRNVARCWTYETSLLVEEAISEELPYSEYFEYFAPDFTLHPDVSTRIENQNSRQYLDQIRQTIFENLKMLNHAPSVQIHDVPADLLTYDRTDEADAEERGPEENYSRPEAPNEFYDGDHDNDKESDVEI
T4 sequence (Q9Y618 395-489 partner limits assumed): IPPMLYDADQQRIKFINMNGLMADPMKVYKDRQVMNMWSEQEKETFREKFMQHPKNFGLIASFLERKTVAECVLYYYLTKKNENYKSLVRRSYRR
The test is described as follows: HDAC-Glo I/II enzymatic assay, HDAC3. The format is biochemical. The conditions noted are these: read-out: HDAC3 pIC50 (converted). As for the experimental part: as §1
For the compound `O=C(NO)c1ccc(Cc2c[nH]c3ccc(C(=O)NO)cc23)cc1` [Compound 3d], the IC50 is 6.46 µM.
Take `CN(C)CCn1cc(Cc2ccc(C(=O)NO)cc2)c2cc(C(=O)NO)ccc21` [Compound 3e]: the IC50 is 6.61 µM.
Still for that read-out and setting: the value for `O=C(NO)c1ccc(Cn2ncc3ccc(C(=O)NO)cc32)cc1` [Compound 3f] was 1.32 µM.
In the case of `CN(C)Cc1nn(Cc2ccc(C(=O)NO)cc2)c2cc(C(=O)NO)ccc12` [Compound 3g], the IC50 was 6.61 µM.
As to `CN(C)Cc1cn(Cc2ccc(C(=O)NO)cc2)c2cc(C(=O)NO)ccc12` [Compound 3b], the IC50 is 6.92 µM.
Take `O=C(NO)c1ccc(Cn2ccc3ccc(C(=O)NO)cc32)cc1` [Compound 3a]: the IC50 is 5.5 µM.
Regarding `CN1CCc2c(c3ccc(C(=O)NO)cc3n2Cc2ccc(C(=O)NO)cc2)C1` [Compound 3c], the IC50 was 13.5 µM.

For another test, the target named is T5, HDAC6 (Homo sapiens, UniProt Q9UBN7).
T5 construct: purchased BPS Bioscience 50006
T5 sequence (Q9UBN7 1-1215): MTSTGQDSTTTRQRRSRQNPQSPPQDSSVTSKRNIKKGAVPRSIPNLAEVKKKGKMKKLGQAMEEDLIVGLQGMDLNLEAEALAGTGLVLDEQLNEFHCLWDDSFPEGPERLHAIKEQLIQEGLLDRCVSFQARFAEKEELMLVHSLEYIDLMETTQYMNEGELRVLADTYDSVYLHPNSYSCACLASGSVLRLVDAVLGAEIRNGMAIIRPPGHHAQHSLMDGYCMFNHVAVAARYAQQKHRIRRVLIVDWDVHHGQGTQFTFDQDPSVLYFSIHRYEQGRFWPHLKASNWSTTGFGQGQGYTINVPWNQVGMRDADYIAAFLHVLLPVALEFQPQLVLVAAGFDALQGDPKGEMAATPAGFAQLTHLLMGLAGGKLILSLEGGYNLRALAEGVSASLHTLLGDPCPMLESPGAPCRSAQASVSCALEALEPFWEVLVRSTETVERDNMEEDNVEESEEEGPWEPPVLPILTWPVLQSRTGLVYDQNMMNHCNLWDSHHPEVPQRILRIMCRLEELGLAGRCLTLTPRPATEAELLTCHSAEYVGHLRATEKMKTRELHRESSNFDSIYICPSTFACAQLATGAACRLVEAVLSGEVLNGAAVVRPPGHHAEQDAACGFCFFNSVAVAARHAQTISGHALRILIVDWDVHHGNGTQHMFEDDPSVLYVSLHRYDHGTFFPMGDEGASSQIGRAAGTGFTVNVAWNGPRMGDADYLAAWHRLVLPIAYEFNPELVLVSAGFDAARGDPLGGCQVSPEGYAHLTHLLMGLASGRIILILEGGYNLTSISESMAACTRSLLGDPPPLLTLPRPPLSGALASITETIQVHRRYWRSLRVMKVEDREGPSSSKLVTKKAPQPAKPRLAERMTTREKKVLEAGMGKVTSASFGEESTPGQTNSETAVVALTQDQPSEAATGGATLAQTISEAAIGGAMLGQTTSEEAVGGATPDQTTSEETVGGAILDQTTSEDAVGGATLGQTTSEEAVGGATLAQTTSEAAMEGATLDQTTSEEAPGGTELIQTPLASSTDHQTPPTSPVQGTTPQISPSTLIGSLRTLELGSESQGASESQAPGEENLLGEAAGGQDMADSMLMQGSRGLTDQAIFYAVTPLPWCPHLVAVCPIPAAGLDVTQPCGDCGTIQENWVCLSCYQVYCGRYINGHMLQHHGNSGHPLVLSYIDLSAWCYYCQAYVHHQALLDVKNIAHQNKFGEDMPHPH
Kind of test: HDAC-Glo I/II enzymatic assay, HDAC6. The conditions noted are these: read-out: HDAC6 pIC50 (converted). The format is biochemical. On the procedure:
as §1
Turning to `O=C(NO)c1ccc(Cc2c[nH]c3ccc(C(=O)NO)cc23)cc1` [Compound 3d], the IC50 is 0.0224 µM.
Consider `CN(C)CCn1cc(Cc2ccc(C(=O)NO)cc2)c2cc(C(=O)NO)ccc21` [Compound 3e], for which the IC50 was 0.0447 µM.
In the case of `O=C(NO)c1ccc(Cn2ncc3ccc(C(=O)NO)cc32)cc1` [Compound 3f], the IC50 was 0.0151 µM.
Regarding `CN(C)Cc1nn(Cc2ccc(C(=O)NO)cc2)c2cc(C(=O)NO)ccc12` [Compound 3g], the IC50 was 0.0302 µM.
For the compound `CN(C)Cc1cn(Cc2ccc(C(=O)NO)cc2)c2cc(C(=O)NO)ccc12` [Compound 3b], the IC50 was 0.0759 µM.
Same read-out and setting: for `O=C(NO)c1ccc(Cn2ccc3ccc(C(=O)NO)cc32)cc1` [Compound 3a] the value was 0.0182 µM.
In the case of `CN1CCc2c(c3ccc(C(=O)NO)cc3n2Cc2ccc(C(=O)NO)cc2)C1` [Compound 3c], the IC50 is 0.0479 µM.

For the origin of these results see article PMC7335359, “Design and Synthesis of Dihydroxamic Acids as HDAC6/8/10 Inhibitors” (Chemmedchem, 2020).
